These results are taken from ChEMBL document CHEMBL3351706, “Identification of trichostatin derivatives from Streptomyces sp. CPCC 203909” (Bioorg Med Chem Lett, 2015).

The term EC50 denotes the concentration that produces a half-maximal response. A higher EC50 goes with weaker potency. As usually defined, the IC50 is the midpoint of a concentration-inhibition curve. A low value points to inhibition by little substance.

The nature of test [1]: Up-regulation of transcriptional activity of human CLA-1 promoter region -1055 to -62bp transfected in HepG2 cells by luciferase reporter gene assay. Type of test: cell-based. Background: In a reporter assay the amount or activity of a reporter protein is the signal.
Test [2] has as its system U2OS. The experiment in a line: Cytotoxicity against human U2OS cells after 96 hrs by MTT assay. Type of test: functional, cell-based.
Test [3] relates to HepG2. Put plainly: Cytotoxicity against human HepG2 cells after 96 hrs by MTT assay. The format is functional, cell-based. The conditions noted are these: HepG2, 96 h. On the technique in general: Formazan colour is commonly taken as a measure of viable cells.
The test system of test [4] is HeLa. Put plainly: Cytotoxicity against human HeLa cells after 96 hrs by MTT assay. The format is functional, cell-based.
Test [5] in a line: Cytotoxicity against human LO2 cells after 96 hrs by MTT assay. Type of test: cell-based. The note with it: L02, 96 h.
Test [6] concerns HEK293. Put plainly: Cytotoxicity against human HEK293 cells after 96 hrs by MTT assay. The format is cell-based. The conditions noted are these: HEK293, 96 h.

`CNc1ccc(C(=O)[C@](C)(O)/C=C(C)/C=C/C(N)=O)cc1`: the EC50 in test [1] was > 100 µM. The half-maximal inhibitory concentration (IC50) in test [2] was > 200 µM; in test [3], > 200 µM; in test [4], > 200 µM; in test [5], > 200 µM; in test [6], > 100 µM.
The compound `CNc1ccc(C(=O)[C@](C)(O)/C=C(C)/C=C/C(=O)NO)cc1` came in with an EC50 in test [1] of 14.3 µM. The IC50 in test [2] is > 200 µM; in test [3], > 200 µM; in test [4] it was > 200 µM; in test [5], 15.5 µM; in test [6], 14.2 µM.
Take `CC(/C=C/C(N)=O)=C\[C@@](C)(O)C(=O)c1ccc(N(C)C)cc1`: the EC50 in test [1] was > 100 µM. In addition, the IC50 in test [2] was > 200 µM; in test [3], > 200 µM; in test [4] it was > 200 µM; in test [5], > 200 µM; in test [6], > 100 µM.
As for `CC(=C/[C@@H](C)C(=O)c1ccc(N(C)C)cc1)/C=C/C(=O)O`, the EC50 in test [1] was > 100 µM. Moreover, the IC50 was > 200 µM in test [2]; > 200 µM in test [3]; > 200 µM in test [4]; > 200 µM in test [5]; > 100 µM in test [6].
`CC(/C=C/C(N)=O)=C\[C@@H](C)C(=O)c1ccc(N(C)C)cc1` registered an EC50 in test [1] of 2.39 µM. The IC50 is > 200 µM in test [2]; > 200 µM in test [3]; > 200 µM in test [4]; 29.1 µM in test [5]; 26.2 µM in test [6].
`CNC(=O)/C=C/C(C)=C/[C@@H](C)C(=O)c1ccc(N(C)C)cc1` registered an EC50 in test [1] of 78.8 µM. Besides, the IC50 in test [2] is > 200 µM; in test [3], > 200 µM; in test [4], > 200 µM; in test [5], 23.9 µM; in test [6], 8.14 µM.
`CC(/C=C/C(=O)NO[C@H]1O[C@H](CO)[C@@H](O)[C@H](O)[C@H]1O)=C\[C@@H](C)C(=O)c1ccc(N(C)C)cc1` gave an EC50 in test [1] of 48.2 µM. In addition, the IC50 in test [2] was > 200 µM; in test [3], > 200 µM; in test [4], > 200 µM; in test [5] it was > 200 µM; in test [6], > 100 µM.
Take `CC(/C=C/C(=O)NO[C@@H]1O[C@H](CO)[C@@H](O)[C@H](O)[C@H]1O)=C\[C@@H](C)C(=O)c1ccc(N(C)C)cc1`: it took 46 µM to reach a half-maximal effect in test [1] (EC50). Further, the IC50 was > 200 µM in test [2]; > 200 µM in test [3]; > 200 µM in test [4]; > 200 µM in test [5]; > 100 µM in test [6].
For the compound `CC(/C=C/C(=O)O)=C\[C@@H](C)C(=O)c1ccc(N(C)C)cc1` [TRICHOSTATIC ACID], the half-maximal effective concentration (EC50) in test [1] is > 100 µM. For the same compound, the IC50 in test [2] is > 200 µM; in test [3], > 200 µM; in test [4], > 200 µM; in test [5], 89.2 µM; in test [6], 86.6 µM.
`CC(/C=C/C(=O)NO)=C\[C@@H](C)C(=O)c1ccc(N(C)C)cc1` [TRICHOSTATIN] returned an EC50 in test [1] of 0.38 µM. For the same compound, the IC50 amounted to 14.9 µM in test [2]; 0.96 µM in test [3]; 0.85 µM in test [4]; 0.21 µM in test [5]; 0.16 µM in test [6].
